# Experiments:
# Thrombin = biological target: T1, Thrombin (Homo sapiens, UniProt P00734); assay: Dose response assay for protease inhibitors: thrombin (FXIa fold selectivity); format: biochemical; details: fold selectivity for FXIa over thrombin
# T1 construct: Thrombin; 0.2 μM in 50% glycerol (7.34 μg/mL)
# Protocol: (§1) • Assay buffer: 20 mM Hepes, pH 7.4; 150 mM NaCl; 0.02% Tween 20 • Compounds: 10 mM stocks in DMSO • Substrate: 20 mM Glp-Pro-Arg-AMC, 25 mg/2.3 mL H2O (store at +4° C.) [Factor XIa, thrombin, and trypsin] • 20 mM Pro-Phe-Arg-AMC (Bachem I-1295), 25 mg/2.2 mL H2O (store at +4° C.) [Factor Xa] • Enzyme: Factor XIa; 0.25 μM in 50% glycerol (20 μg/mL) • Trypsin; 0.2 μM in 50% glycerol (4.8 μg/mL) • Thrombin; 0.2 μM in 50% glycerol (7.34 μg/mL) • Factor Xa; 0.2 μM in 50% glycerol (9.2 μg/mL) • These stocks are aliquoted ([…]) and stored at −20° C. Methods: • 1. Dilute the substrate to 100 μM in assay buffer (30 μL/6 mL). The enzyme is diluted to 0.5 nM just prior to use (12 μL/6 mL for Factor XIa; 15 μL/6 mL for all of the rest.) • 2. Pipette 50 μL of substrate into each well of the 96 well (12×8) microtiter plate. (Column 1 is used as the 100% activity control and receives no compound, and Column 12 is the blank and receives no enzyme.) Add an additional 46 μL to column 2. • 3. Pipette 4 μL of each compound into the appropriate well in column 2 of the plate (unknowns assayed in triplicate, standard assayed in duplicate). The final compound concentration will be 1/50th of the stock. • 4. Serially two-fold dilute the compound by mixing the sample in column 2, removing 50 μL to the next well (column 3), mix and remove to column 4, etc. until column 11. After mixing column 11, remove 50 μL and discard. • 5. Pipette 50 μL of buffer into column 12. Initiate the reaction by adding 50 μL of enzyme solution to each well of columns 1-11 as rapidly as possible. • 6. Read the plate in a spectrophotometer (SpectraMax) at 30° C., wherein each well is measured every 60 s for 30 min. For Factor Xa assays, each well is measured every 1 min for a total of 60 min. • 7. For Factor XIa assays, the compounds are assayed, in duplicate, at 3 different starting concentrations, 20, 2, and 0.2 μM; 1:10, 1:100, and 1:1000 dil'n of 10 mM stock. All data sets are combined for graphing and data fitting. • 8. Data can be used both for estimation of IC50 and for estimation of Kon.
# in vitro [1] = details: for fraction unbound at 4 h, 10 µM: both, human, plasma, pH 7.4
# Protocol: The following procedure was used to determine the plasma protein binding of a test compound in pooled plasma from human (mixed gender) via equilibrium dialysis in a 96-well plate format. The dialysate compartment is loaded with phosphate-buffered saline (pH 7.4) and the sample side is loaded with plasma spiked with the test compound at a concentration of 10 μM. After loading, samples are covered and incubated for 4 hours at 37° C. After incubation, each compartment is sampled, diluted with acetonitrile/buffer and centrifuged. The supernatants are analyzed by HPLC-MS/MS. The amount measured in the plasma compartment includes both free and bound drug, while that on the buffer side represents free drug only; the differences are used to calculate the percentage plasma protein bound.
# Trypsin = assay: Dose response assay for protease inhibitors: trypsin (FXIa fold selectivity); format: biochemical; details: fold selectivity for FXIa over trypsin
# Protocol: as §1
# physchem = format: physicochemical; details: pH 7.4, aqueous buffer, kinetic from dmso stock
# Protocol: The test compound was prepared at 200 μM in PBS from a 10 mM DMSO stock solution. The final DMSO concentration was 2%. The PBS buffer samples were mixed thoroughly followed by incubation at room temperature for 24 h. At the end of the incubation, the PBS buffer samples were centrifuged and supernatants analyzed by HPLC.
# Factor Xa = biological target: T2, Factor Xa (Homo sapiens, UniProt P00742); assay: Dose response assay for protease inhibitors: Factor Xa (FXIa fold selectivity); format: biochemical; details: fold selectivity for FXIa over Factor Xa
# T2 construct: Factor Xa; 0.2 μM in 50% glycerol (9.2 μg/mL)
# T2 sequence (P00742 235-488 limits assumed): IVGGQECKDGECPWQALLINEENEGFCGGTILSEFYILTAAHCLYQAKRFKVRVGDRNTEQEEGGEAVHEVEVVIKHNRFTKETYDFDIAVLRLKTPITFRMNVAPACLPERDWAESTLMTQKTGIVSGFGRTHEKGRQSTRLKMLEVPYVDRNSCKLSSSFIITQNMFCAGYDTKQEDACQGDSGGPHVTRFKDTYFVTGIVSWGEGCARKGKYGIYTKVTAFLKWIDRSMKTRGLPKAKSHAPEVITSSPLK
# T2 sequence (P00742 41-179 partner limits assumed): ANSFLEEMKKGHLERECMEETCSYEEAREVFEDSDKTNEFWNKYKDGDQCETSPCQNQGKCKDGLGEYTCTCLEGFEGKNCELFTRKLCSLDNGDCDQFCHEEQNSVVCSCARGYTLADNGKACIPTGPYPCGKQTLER
# Protocol: as §1
# in vitro [2] = details: both, human, microsomes, pH 7.4
# Protocol: The following procedure was used to determine the stability of a test compound in pooled liver microsomes from human (mixed gender) in 96-well plate format. The test compound was quantified at five time points by HPLC-MS/MS analysis. The final microsomal protein concentration in the assay was 0.1 mg/mL. […] The test compound was pre-incubated with human liver microsomes in phosphate buffer (pH 7.4) for 5 min in a 37° C. shaking waterbath. The reaction was initiated by adding NADPH-generating system and incubated for 0, 15, 30, 45, and 60 minutes. The reaction was stopped by transferring the incubation mixture to acetonitrile/methanol. Samples were then mixed and centrifuged and the supernatants used for HPLC-MS/MS analysis. Peak areas corresponding to the test compound were recorded. The compound remaining was calculated by comparing the peak area at each time point to time zero.
# [3] = β-Lactam stability in rat plasma; format: in vitro ADME; details: normal rat plasma, room temperature; read-out: Rat Plasma Stability (T1/2; min)
# Summary of the method: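 Compounds incubated in normal rat plasma at room temperature, sampled into acetonitrile from 2 to 480 min. Supernatants analysed by HPLC-MS on C18, extracted ion chromatograms of parent and parent+18 (H2O adduct) integrated; T½ = ln(2)/k from single-phase exponential decay fit.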
# human Factor XIa = biological target: T3, human Factor XIa (Homo sapiens, UniProt P03951); assay: Factor XIa enzyme inhibition assay (IC50, purified enzyme); format: biochemical; details: purified enzyme 0.25 nM, substrate 50 μM; read-out: Potency hFXIa IC50
# T3 construct: Enzyme: Factor XIa; 0.25 μM in 50% glycerol (20 μg/mL)
# T3 sequence (P03951 388-625 limits assumed): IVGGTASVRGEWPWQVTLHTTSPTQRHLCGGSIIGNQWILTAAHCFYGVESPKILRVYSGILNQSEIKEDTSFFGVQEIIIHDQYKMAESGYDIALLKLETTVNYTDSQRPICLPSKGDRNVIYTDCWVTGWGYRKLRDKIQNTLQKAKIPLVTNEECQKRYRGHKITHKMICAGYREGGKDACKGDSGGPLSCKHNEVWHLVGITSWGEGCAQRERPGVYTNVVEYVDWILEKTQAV
# T3 sequence (P03951 19-387 partner limits assumed): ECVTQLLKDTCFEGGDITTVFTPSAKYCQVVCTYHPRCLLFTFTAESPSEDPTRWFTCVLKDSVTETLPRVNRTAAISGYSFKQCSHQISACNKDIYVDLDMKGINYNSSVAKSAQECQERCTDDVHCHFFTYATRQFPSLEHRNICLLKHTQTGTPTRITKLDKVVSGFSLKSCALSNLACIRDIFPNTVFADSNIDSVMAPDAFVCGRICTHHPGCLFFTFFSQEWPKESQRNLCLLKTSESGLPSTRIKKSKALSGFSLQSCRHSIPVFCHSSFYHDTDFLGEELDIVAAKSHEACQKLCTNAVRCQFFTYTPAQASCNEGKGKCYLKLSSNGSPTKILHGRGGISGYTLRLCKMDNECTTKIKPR
# Summary of the method: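 Fluorogenic Glp-Pro-Arg-AMC cleavage, 50 μM substrate, 0.25 nM enzyme, in 20 mM Hepes pH 7.4, 150 mM NaCl, 0.02% Tween 20. Serial two-fold compound dilutions from starting concentrations of 20, 2 and 0.2 μM. Read every minute for 30 min at 30° C; IC50 from a four-parameter fit of dose-response.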
FXIa Fold Selectivity Thrombin (Thrombin),"fraction unbound at 4 h, 10 µM (in vitro [1])",solubility at 4 h (physchem),FXIa Fold Selectivity FXa (Factor Xa),half-life at 0.1 µM (in vitro [2]),half-life [3],IC50 (human Factor XIa),binding of reference compounds to human plasma proteins (in vitro [1]),solubility at 24 h (physchem),Compound,FXIa Fold Selectivity Trypsin (Trypsin)
I (“I” indicates >1000),> 0.1,> 100 µM,I (“I” indicates >1000),> 1 h,> 1.67 h,< 0.01 µM,–,–,C[C@@H](NC(=O)N1C(=O)[C@H](Cc2ccnc(N)c2)[C@H]1C(=O)O)C1CCCCC1 [Example 38],H (“H” indicates 500-1000)
I (“I” indicates >1000),> 0.1,> 100 µM,I (“I” indicates >1000),> 1 h,> 1.67 h,< 0.01 µM,–,–,Nc1cc(C[C@H]2C(=O)N(C(=O)N[C@@H](C3CCCCC3)C(F)(F)F)[C@@H]2C(=O)O)ccn1 [Example 88],G (“G” indicates 1-500)
I (“I” indicates >1000),0.02 to 0.1,> 100 µM,I (“I” indicates >1000),> 1 h,> 1.67 h,< 0.01 µM,–,–,C[C@@H](NC(=O)N1C(=O)[C@H](Cc2ccnc(N)c2)[C@H]1C(=O)O)c1ccc2c(c1)OC(F)(F)O2 [Example 91],G (“G” indicates 1-500)
I (“I” indicates >1000),–,1 to 10 µM,H (“H” indicates 500-1000),–,< 1.67 h,0.01 to 0.1 µM,–,–,CCOC(=O)[C@@H]1[C@@H](Cc2ccnc(NC(=O)OCOC(=O)C(C)C)c2)C(=O)N1C(=O)N[C@H](C)c1ccc2c(c1)OC(F)(F)O2 [Example 92],I (“I” indicates >1000)
G (“G” indicates 1-500),< 0.02,> 100 µM,G (“G” indicates 1-500),< 0.5 h,–,0.1 to 1 µM,–,–,CC(C)C(=O)OCOC(=O)Nc1cc(C[C@H]2C(=O)N(C(=O)N[C@H](C)c3ccc4c(c3)OC(F)(F)O4)[C@@H]2C(=O)O)ccn1 [Example 100],G (“G” indicates 1-500)
–,< 0.02,> 100 µM,–,> 1 h,> 1.67 h,> 1 µM,–,–,C[C@@H](NC(=O)N1C(=O)C(Cc2ccnc(Cl)c2)[C@H]1C(=O)O)c1ccc2c(c1)OC(F)(F)O2 (some centres unmarked) [Example 128],–
G (“G” indicates 1-500),–,–,G (“G” indicates 1-500),–,> 1.67 h,0.1 to 1 µM,–,–,O=C(O)[C@@H]1[C@@H](Cc2ccncc2)C(=O)N1C(=O)N[C@@H](C1CCCCC1)C(F)(F)F [Example 135],G (“G” indicates 1-500)
I (“I” indicates >1000),–,–,H (“H” indicates 500-1000),–,< 1.67 h,0.01 to 0.1 µM,–,–,CCOC(=O)[C@@H]1[C@@H](Cc2ccnc(NC(=O)OCOC(=O)C(C)C)c2)C(=O)N1C(=O)N[C@H](C)C1CCCCC1 [Example 137],I (“I” indicates >1000)
I (“I” indicates >1000),–,–,I (“I” indicates >1000),–,< 1.67 h,0.01 to 0.1 µM,–,–,CCOC(=O)[C@@H]1[C@@H](Cc2ccnc(NC(=O)OCOC(=O)C(C)C)c2)C(=O)N1C(=O)N[C@@H](C1CCCCC1)C(F)(F)F [Example 140],G (“G” indicates 1-500)
G (“G” indicates 1-500),–,–,G (“G” indicates 1-500),–,< 1.67 h,0.1 to 1 µM,–,–,CCOC(=O)[C@@H]1[C@@H](Cc2ccnc(NC(=O)[C@H](C)N)c2)C(=O)N1C(=O)N[C@H](C)c1ccc2c(c1)OC(F)(F)O2 [Example 148],G (“G” indicates 1-500)
I (“I” indicates >1000),–,–,H (“H” indicates 500-1000),–,> 1.67 h,0.1 to 1 µM,–,–,O=C(O)[C@@H]1[C@@H](CCc2cccc(Cl)c2F)C(=O)N1C(=O)N[C@@H](C1CCCCC1)C(F)(F)F [Example 156],I (“I” indicates >1000)
–,> 0.1,< 1 µM,–,0.5 to 1 h,–,0.1 to 1 µM,–,–,CCOC(=O)[C@@H]1C(CCc2cccc(Cl)c2)C(=O)N1C(=O)N[C@@H](C1CCCCC1)C(F)(F)F (some centres unmarked) [Example 158],–
I (“I” indicates >1000),–,–,H (“H” indicates 500-1000),–,< 1.67 h,< 0.01 µM,–,–,CCOC(=O)[C@@H]1[C@@H](Cc2ccnc(N)c2)C(=O)N1C(=O)N[C@@H](C)c1ccc2c(c1)OC(F)(F)O2 [Example 166],G (“G” indicates 1-500)
I (“I” indicates >1000),–,–,I (“I” indicates >1000),–,> 1.67 h,< 0.01 µM,–,–,C[C@@H](NC(=O)N1C(=O)[C@H](Cc2ccnc(N)c2)[C@H]1C(=O)O)c1ccc(OC(F)(F)F)cc1 [Example 168],I (“I” indicates >1000)
G (“G” indicates 1-500),–,–,G (“G” indicates 1-500),–,< 1.67 h,0.01 to 0.1 µM,–,–,CCOC(=O)[C@@H]1[C@@H](Cc2ccncc2)C(=O)N1C(=O)N[C@H](C)c1ccc2c(c1)OC(F)(F)O2 [Example 170],G (“G” indicates 1-500)
–,–,–,–,–,–,–,low,–,"CCCC(=O)Nc1ccc(OCC(O)CNC(C)C)c(C(C)=O)c1 (centres unmarked) [acebutolol, reference compound]",–
–,–,–,–,–,–,–,–,200 µM,"COCCc1ccc(OCC(O)CNC(C)C)cc1 (centres unmarked) [metoprolol, reference compound]",–
–,–,–,–,–,–,–,medium,–,"C=C[C@H]1C[N@@]2CC[C@H]1C[C@@H]2[C@@H](O)c1ccnc2ccc(OC)cc12 [quinidine, reference compound]",–
